Data: US9603849B2, “Uses of orvepitant” (NERRE THERAPEUTICS LIMITED, priority 2012, dated 2017)

Target: NK-1 receptor (Meriones unguiculatus, UniProt Q5DUB1)
Experiment: GR73632-induced hindlimb scratching behaviour in the Mongolian gerbil
Type: in vivo
Conditions: mean ± s.e.m.
Excerpt: 5) Particularly the antipruritic effect of orvepitant maleate was determinated in GR73632-induced scratching behaviour in the Mongolian gerbil. According to this metholody the scratching behaviour was induced by GR73632 which is a specific agonist of the NK-1 receptor.
72 male Mongolian gerbils (58-78 g) after a minimum habituation period of 10 days prior to study commencement, were acclimatised to the procedure room in their home cages, with food and water available ad libitum. The day before the experiment was due to commence a 1 cm×1 cm squared area between the shoulder blades was shaved free of hair.
Habituation to the apparatus (custom made observation chambers; approximately 30×30 cm; 2 animals per observation) took place 30 minutes prior to induction of scratching behaviours using GR73632.
A 10 mg/kg stock solution of orvepitant maleate was made by dissolving 20 mg of orvepitant maleate Form 1 in 20 mls of vehicle (5% DMSO & 95% HPMC (0.5%)). This stock solution was serially diluted to prepare doses of 0.1, 0.3, 1.0, 3.0 or 10 mg/kg orvepitant maleate.
At T=−60 mins mongolian gerbils were dosed with orvepitant maleate (0.1, 0.3, 1.0, 3.0 or, 10 mg/kg p.o.). Gerbils were allocated to dosing groups based on a Latin square design. 30 Minutes later (T=−30 mins) gerbils were placed into the observation chamber for 30 minutes habituation. At T=0 Gerbils were then dosed with GR73632 (30 nmol/100 uL; i.d.) between the shoulder blades and their subsequent hindlimb scratching behaviour recorded using GeoVision surveillance software over a 30 minute period.
Playing back of the video served for counting scratching behaviour. […] Cumulative frequency and duration (secs) of scratching was scored in 5 min epochs. Treatment groups were randomised based on a Latin Square design. The experimenter was blinded to the treatment groups.
Repeated measures ANOVA followed by Planned comparison test using GraphPad Prism. (p<0.05 considered significant). Data were analysed by comparing treatment groups to control group at each time point.

NK-1 receptor, sequence (Q5DUB1 whole entry): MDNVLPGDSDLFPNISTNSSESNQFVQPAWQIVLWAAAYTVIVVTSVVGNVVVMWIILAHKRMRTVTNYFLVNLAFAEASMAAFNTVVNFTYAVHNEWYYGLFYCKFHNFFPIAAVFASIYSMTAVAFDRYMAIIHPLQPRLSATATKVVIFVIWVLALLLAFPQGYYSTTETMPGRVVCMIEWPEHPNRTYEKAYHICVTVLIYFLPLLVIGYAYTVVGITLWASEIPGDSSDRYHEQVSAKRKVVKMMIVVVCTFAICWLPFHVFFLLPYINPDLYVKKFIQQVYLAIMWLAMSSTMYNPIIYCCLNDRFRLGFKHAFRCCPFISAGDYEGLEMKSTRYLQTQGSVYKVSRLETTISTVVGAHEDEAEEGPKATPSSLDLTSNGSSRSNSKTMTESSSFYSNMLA

Cumulative duration of hindlimb scratching (0.1 mg/kg p.o., 0-5 mins after GR73632 i.d., vehicle 5.35 ± 1.37): NS 2.76 ± 0.71 secs
Cumulative frequency of hindlimb scratching (0.1 mg/kg p.o., 0-5 mins after GR73632 i.d., vehicle 7.75 ± 2.18): NS4.08 ± 1.45
Cumulative duration of hindlimb scratching (0.1 mg/kg p.o., 5-10 mins after GR73632 i.d., vehicle 11.71 ± 1.93): **4.20 ± 0.85 secs
Cumulative frequency of hindlimb scratching (0.1 mg/kg p.o., 5-10 mins after GR73632 i.d., vehicle 14.41 ± 2.49): **5.83 ± 1.55
Cumulative duration of hindlimb scratching (0.1 mg/kg p.o., 10-15 mins after GR73632 i.d., vehicle 16.54 ± 2.58): ***5.96 ± 1.16 secs
Cumulative frequency of hindlimb scratching (0.1 mg/kg p.o., 10-15 mins after GR73632 i.d., vehicle 20.25 ± 2.97): ***7.91 ± 1.74
Cumulative duration of hindlimb scratching (0.1 mg/kg p.o., 15-20 mins after GR73632 i.d., vehicle 20.08 ± 2.83): ***7.86 ± 1.67 secs
Cumulative frequency of hindlimb scratching (0.1 mg/kg p.o., 15-20 mins after GR73632 i.d., vehicle 24.33 ± 3.22): ***9.66 ± 1.92
Cumulative duration of hindlimb scratching (0.1 mg/kg p.o., 20-25 mins after GR73632 i.d., vehicle 23.19 ± 2.80): ***8.99 ± 2.09 secs
Cumulative frequency of hindlimb scratching (0.1 mg/kg p.o., 20-25 mins after GR73632 i.d., vehicle 28.25 ± 3.26): ***10.91 ± 2.07
Cumulative duration of hindlimb scratching (0.1 mg/kg p.o., 25-30 mins after GR73632 i.d., vehicle 25.69 ± 3.026): ***9.67 ± 2.14 secs
Cumulative frequency of hindlimb scratching (0.1 mg/kg p.o., 25-30 mins after GR73632 i.d., vehicle 32.00 ± 3.60): ***11.58 ± 2.12
Cumulative duration of hindlimb scratching (0.3 mg/kg p.o., 0-5 mins after GR73632 i.d., vehicle 5.35 ± 1.37): NS 2.06 ± 0.62 secs
Cumulative frequency of hindlimb scratching (0.3 mg/kg p.o., 0-5 mins after GR73632 i.d., vehicle 7.75 ± 2.18): NS3.00 ± 0.88
Cumulative duration of hindlimb scratching (0.3 mg/kg p.o., 5-10 mins after GR73632 i.d., vehicle 11.71 ± 1.93): **3.50 ± 0.88 secs
Cumulative frequency of hindlimb scratching (0.3 mg/kg p.o., 5-10 mins after GR73632 i.d., vehicle 14.41 ± 2.49): ***4.91 ± 1.15
Cumulative duration of hindlimb scratching (0.3 mg/kg p.o., 10-15 mins after GR73632 i.d., vehicle 16.54 ± 2.58): ***5.86 ± 1.44 secs
Cumulative frequency of hindlimb scratching (0.3 mg/kg p.o., 10-15 mins after GR73632 i.d., vehicle 20.25 ± 2.97): ***7.50 ± 1.56
Cumulative duration of hindlimb scratching (0.3 mg/kg p.o., 15-20 mins after GR73632 i.d., vehicle 20.08 ± 2.83): ***7.09 ± 1.63 secs
Cumulative frequency of hindlimb scratching (0.3 mg/kg p.o., 15-20 mins after GR73632 i.d., vehicle 24.33 ± 3.22): ***8.66 ± 1.61
Cumulative duration of hindlimb scratching (0.3 mg/kg p.o., 20-25 mins after GR73632 i.d., vehicle 23.19 ± 2.80): ***8.58 ± 1.93 secs
Cumulative frequency of hindlimb scratching (0.3 mg/kg p.o., 20-25 mins after GR73632 i.d., vehicle 28.25 ± 3.26): ***10.00 ± 1.62
Cumulative duration of hindlimb scratching (0.3 mg/kg p.o., 25-30 mins after GR73632 i.d., vehicle 25.69 ± 3.026): ***10.27 ± 2.17 secs
Cumulative frequency of hindlimb scratching (0.3 mg/kg p.o., 25-30 mins after GR73632 i.d., vehicle 32.00 ± 3.60): ***11.75 ± 1.90
Cumulative duration of hindlimb scratching (1.0 mg/kg p.o., 0-5 mins after GR73632 i.d., vehicle 5.35 ± 1.37): NS 2.74 ± 1.06 secs
Cumulative frequency of hindlimb scratching (1.0 mg/kg p.o., 0-5 mins after GR73632 i.d., vehicle 7.75 ± 2.18): NS3.75 ± 1.30
Cumulative duration of hindlimb scratching (1.0 mg/kg p.o., 5-10 mins after GR73632 i.d., vehicle 11.71 ± 1.93): **4.51 ± 1.05 secs
Cumulative frequency of hindlimb scratching (1.0 mg/kg p.o., 5-10 mins after GR73632 i.d., vehicle 14.41 ± 2.49): **5.91 ± 1.25
Cumulative duration of hindlimb scratching (1.0 mg/kg p.o., 10-15 mins after GR73632 i.d., vehicle 16.54 ± 2.58): ***4.92 ± 1.13 secs
Cumulative frequency of hindlimb scratching (1.0 mg/kg p.o., 10-15 mins after GR73632 i.d., vehicle 20.25 ± 2.97): ***6.41 ± 1.29
Cumulative duration of hindlimb scratching (1.0 mg/kg p.o., 15-20 mins after GR73632 i.d., vehicle 20.08 ± 2.83): ***6.02 ± 1.28 secs
Cumulative frequency of hindlimb scratching (1.0 mg/kg p.o., 15-20 mins after GR73632 i.d., vehicle 24.33 ± 3.22): ***8.00 ± 1.39
Cumulative duration of hindlimb scratching (1.0 mg/kg p.o., 20-25 mins after GR73632 i.d., vehicle 23.19 ± 2.80): ***7.48 ± 1.55 secs
Cumulative frequency of hindlimb scratching (1.0 mg/kg p.o., 20-25 mins after GR73632 i.d., vehicle 28.25 ± 3.26): ***9.66 ± 1.71
Cumulative duration of hindlimb scratching (1.0 mg/kg p.o., 25-30 mins after GR73632 i.d., vehicle 25.69 ± 3.026): ***10.00 ± 2.17 secs
Cumulative frequency of hindlimb scratching (1.0 mg/kg p.o., 25-30 mins after GR73632 i.d., vehicle 32.00 ± 3.60): ***12.08 ± 2.25
Cumulative duration of hindlimb scratching (3.0 mg/kg p.o., 0-5 mins after GR73632 i.d., vehicle 5.35 ± 1.37): NS 0.96 ± 0.32 secs
Cumulative frequency of hindlimb scratching (3.0 mg/kg p.o., 0-5 mins after GR73632 i.d., vehicle 7.75 ± 2.18): NS1.58 ± 0.46
Cumulative duration of hindlimb scratching (3.0 mg/kg p.o., 5-10 mins after GR73632 i.d., vehicle 11.71 ± 1.93): ***1.30 ± 0.38 secs
Cumulative frequency of hindlimb scratching (3.0 mg/kg p.o., 5-10 mins after GR73632 i.d., vehicle 14.41 ± 2.49): ***2.16 ± 0.58
Cumulative duration of hindlimb scratching (3.0 mg/kg p.o., 10-15 mins after GR73632 i.d., vehicle 16.54 ± 2.58): ***1.79 ± 0.39 secs
Cumulative frequency of hindlimb scratching (3.0 mg/kg p.o., 10-15 mins after GR73632 i.d., vehicle 20.25 ± 2.97): ***2.83 ± 0.57
Cumulative duration of hindlimb scratching (3.0 mg/kg p.o., 15-20 mins after GR73632 i.d., vehicle 20.08 ± 2.83): ***2.415 ± 0.47 secs
Cumulative frequency of hindlimb scratching (3.0 mg/kg p.o., 15-20 mins after GR73632 i.d., vehicle 24.33 ± 3.22): ***3.66 ± 0.64
Cumulative duration of hindlimb scratching (3.0 mg/kg p.o., 20-25 mins after GR73632 i.d., vehicle 23.19 ± 2.80): ***2.59 ± 0.50 secs
Cumulative frequency of hindlimb scratching (3.0 mg/kg p.o., 20-25 mins after GR73632 i.d., vehicle 28.25 ± 3.26): ***4.00 ± 0.67
Cumulative duration of hindlimb scratching (3.0 mg/kg p.o., 25-30 mins after GR73632 i.d., vehicle 25.69 ± 3.026): ***3.09 ± 0.61 secs
Cumulative frequency of hindlimb scratching (3.0 mg/kg p.o., 25-30 mins after GR73632 i.d., vehicle 32.00 ± 3.60): ***4.58 ± 0.76
Cumulative duration of hindlimb scratching (10.0 mg/kg p.o., 0-5 mins after GR73632 i.d., vehicle 5.35 ± 1.37): NS 0.57 ± 0.29 secs
Cumulative frequency of hindlimb scratching (10.0 mg/kg p.o., 0-5 mins after GR73632 i.d., vehicle 7.75 ± 2.18): *0.91 ± 0.43
Cumulative duration of hindlimb scratching (10.0 mg/kg p.o., 5-10 mins after GR73632 i.d., vehicle 11.71 ± 1.93): ***1.13 ± 0.38 secs
Cumulative frequency of hindlimb scratching (10.0 mg/kg p.o., 5-10 mins after GR73632 i.d., vehicle 14.41 ± 2.49): ***1.66 ± 0.60
Cumulative duration of hindlimb scratching (10.0 mg/kg p.o., 10-15 mins after GR73632 i.d., vehicle 16.54 ± 2.58): ***2.38 ± 0.78 secs
Cumulative frequency of hindlimb scratching (10.0 mg/kg p.o., 10-15 mins after GR73632 i.d., vehicle 20.25 ± 2.97): ***2.58 ± 0.73
Cumulative duration of hindlimb scratching (10.0 mg/kg p.o., 15-20 mins after GR73632 i.d., vehicle 20.08 ± 2.83): ***3.22 ± 0.84 secs
Cumulative frequency of hindlimb scratching (10.0 mg/kg p.o., 15-20 mins after GR73632 i.d., vehicle 24.33 ± 3.22): ***3.58 ± 0.73
Cumulative duration of hindlimb scratching (10.0 mg/kg p.o., 20-25 mins after GR73632 i.d., vehicle 23.19 ± 2.80): ***4.36 ± 1.18 secs
Cumulative frequency of hindlimb scratching (10.0 mg/kg p.o., 20-25 mins after GR73632 i.d., vehicle 28.25 ± 3.26): ***5.00 ± 0.92
Cumulative duration of hindlimb scratching (10.0 mg/kg p.o., 25-30 mins after GR73632 i.d., vehicle 25.69 ± 3.026): ***5.24 ± 1.35 secs
Cumulative frequency of hindlimb scratching (10.0 mg/kg p.o., 25-30 mins after GR73632 i.d., vehicle 32.00 ± 3.60): ***5.91 ± 1.16
SMILES: Cc1cc(F)ccc1[C@H]1C[C@@H](N2CCN3C(=O)CC[C@H]3C2)CCN1C(=O)N(C)[C@H](C)c1cc(C(F)(F)F)cc(C(F)(F)F)c1.O=C(O)/C=C\C(=O)O [orvepitant maleate, 2-(R)-(4-Fluoro-2-methyl-phenyl)-4-(S)-((8aS)-6-oxo-hexahydro-pyrrolo[1,2-a]-pyrazin-2-yl)-piperidine-1-carboxylic acid [1-(R)-(3,5-bis-trifluoromethyl-phenyl)-ethyl]-methylamide maleate]
